Assay results from ChEMBL document CHEMBL1201862, “PubChem BioAssay data set” (2004).
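Five compound concentrations were applied to cells in 96-well plates for 48 hours; endpoints were derived by simple linear interpolation of the resulting dose-response curve. At the GI50, growth is halved.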 Active and inactive are the calls of the source. No stated cut-off is given here; in the data, active = GI50 up to about 1.1 µM and inactive = higher.

How the values were obtained:
Assay in all cases: growth of human tumour cells (NCI), 48 h
A498 = tested on: A498
HCC 2998 = tested on: HCC 2998
SNB-19 = tested on: SNB-19
SK-MEL-2 = tested on: SK-MEL-2
RPMI-8226 = tested on: RPMI-8226
SK-OV-3 = tested on: SK-OV-3
HCT-116 = tested on: HCT-116
A549 = tested on: A549
Malme-3M = tested on: Malme-3M
OVCAR-3 = tested on: OVCAR-3
SW-620 = tested on: SW-620
COLO 205 = tested on: COLO 205
LOX IMVI = tested on: LOX IMVI
IGROV-1 = tested on: IGROV-1
SK-MEL-5 = tested on: SK-MEL-5
K562 = tested on: K562
UACC-257 = tested on: UACC-257
SN12C = tested on: SN12C
OVCAR-8 = tested on: OVCAR-8
CCRF-CEM = tested on: CCRF-CEM

Measured: GI50

Nc1nc(-c2cccc([N+](=O)[O-])c2)cc(-c2cc(-c3cccc([N+](=O)[O-])c3)nc(N)n2)n1
inactive: A498 > 100 µM | HCC 2998 > 100 µM | SNB-19 > 100 µM | SK-MEL-2 > 100 µM | RPMI-8226 > 100 µM | SK-OV-3 > 100 µM | HCT-116 > 100 µM | A549 > 100 µM | Malme-3M > 100 µM | OVCAR-3 > 100 µM | SW-620 > 100 µM | COLO 205 > 100 µM | LOX IMVI > 100 µM | IGROV-1 > 100 µM | SK-MEL-5 > 100 µM | K562 > 100 µM | UACC-257 > 100 µM | SN12C > 100 µM | OVCAR-8 > 100 µM

CCOC(=O)NC(=O)c1cn(CCN(CCO)C(=O)NCCCCCCNC(=O)N(CCO)CCn2cc(C(=O)NC(=O)OCC)c(=O)[nH]c2=O)c(=O)[nH]c1=O
inactive: CCRF-CEM > 100 µM | A498 > 100 µM | HCC 2998 > 100 µM | SNB-19 > 100 µM | SK-MEL-2 > 100 µM | RPMI-8226 > 100 µM | HCT-116 > 100 µM | A549 > 100 µM | Malme-3M > 100 µM | OVCAR-3 > 100 µM | SW-620 > 100 µM | COLO 205 > 100 µM | LOX IMVI > 100 µM | IGROV-1 > 100 µM | SK-MEL-5 > 100 µM | K562 > 100 µM | UACC-257 > 100 µM | SN12C > 100 µM | OVCAR-8 > 100 µM

C=CCn1c(=O)c(Br)nn(CCOCP(=O)(OCC)OCC)c1=O
inactive: CCRF-CEM > 100 µM | A498 > 100 µM | HCC 2998 > 100 µM | SNB-19 > 100 µM | SK-MEL-2 > 100 µM | RPMI-8226 > 100 µM | A549 > 100 µM | Malme-3M > 100 µM | OVCAR-3 > 100 µM | SW-620 > 100 µM | COLO 205 > 100 µM | LOX IMVI > 100 µM | IGROV-1 > 100 µM | SK-MEL-5 61.2 µM | K562 > 100 µM | UACC-257 > 100 µM | SN12C > 100 µM | OVCAR-8 > 100 µM

NC(Cc1ccccc1)C(=O)N[C@H]1c2ccsc2/C(=N/O)[C@H]1O (some centres not stated)
inactive: CCRF-CEM > 100 µM | A498 > 100 µM | HCC 2998 > 100 µM | SK-MEL-2 > 100 µM | SK-OV-3 > 100 µM | HCT-116 > 100 µM | A549 > 100 µM | Malme-3M > 100 µM | OVCAR-3 > 100 µM | SW-620 > 100 µM | COLO 205 > 100 µM | LOX IMVI > 100 µM | IGROV-1 > 100 µM | SK-MEL-5 > 100 µM | K562 > 100 µM | UACC-257 > 100 µM | SN12C > 100 µM | OVCAR-8 > 100 µM

NS(=O)(=O)C1CCCCC1C(=O)NNC(=O)C(=O)Nc1nnc(S)[nH]1 (configuration not stated)
inactive: CCRF-CEM > 100 µM | A498 > 100 µM | HCC 2998 > 100 µM | SNB-19 > 100 µM | SK-MEL-2 > 100 µM | RPMI-8226 > 100 µM | SK-OV-3 > 100 µM | HCT-116 > 100 µM | A549 > 100 µM | SW-620 > 100 µM | COLO 205 > 100 µM | LOX IMVI > 100 µM | IGROV-1 > 100 µM | SK-MEL-5 > 100 µM | K562 > 100 µM | UACC-257 > 100 µM | SN12C > 100 µM | OVCAR-8 > 100 µM

CO/N=C1/c2sccc2[C@H](NC(=O)C(F)(F)F)[C@@H]1O
inactive: CCRF-CEM > 100 µM | A498 > 100 µM | HCC 2998 > 100 µM | SK-MEL-2 > 100 µM | SK-OV-3 > 100 µM | HCT-116 > 100 µM | A549 > 100 µM | Malme-3M > 100 µM | OVCAR-3 > 100 µM | SW-620 > 100 µM | COLO 205 > 100 µM | LOX IMVI > 100 µM | IGROV-1 > 100 µM | SK-MEL-5 > 100 µM | K562 > 100 µM | UACC-257 > 100 µM | SN12C > 100 µM | OVCAR-8 > 100 µM

Cc1ccc2c(=O)c3ccccc3sc2c1
inactive: CCRF-CEM > 100 µM | HCC 2998 > 100 µM | SNB-19 66.4 µM | RPMI-8226 > 100 µM | SK-OV-3 > 100 µM | HCT-116 > 100 µM | A549 > 100 µM | Malme-3M > 100 µM | OVCAR-3 > 100 µM | SW-620 > 100 µM | COLO 205 > 100 µM | LOX IMVI > 100 µM | IGROV-1 > 100 µM | SK-MEL-5 > 100 µM | K562 > 100 µM | SN12C > 100 µM | OVCAR-8 > 100 µM

COc1ccc(-c2c3ccccc3c(-c3ccc(OCCCCCBr)cc3)c3ccccc23)cc1
inactive: CCRF-CEM > 100 µM | HCC 2998 > 100 µM | SNB-19 > 100 µM | SK-MEL-2 > 100 µM | RPMI-8226 > 100 µM | SK-OV-3 > 100 µM | HCT-116 > 100 µM | A549 > 100 µM | Malme-3M > 100 µM | OVCAR-3 > 100 µM | SW-620 > 100 µM | COLO 205 > 100 µM | LOX IMVI > 100 µM | IGROV-1 > 100 µM | K562 > 100 µM | SN12C > 100 µM | OVCAR-8 > 100 µM

O=C(N/N=C\c1cccc2ccccc12)Nc1ccccc1
inactive: CCRF-CEM > 100 µM | A498 > 100 µM | SNB-19 > 100 µM | SK-MEL-2 > 100 µM | RPMI-8226 > 100 µM | SK-OV-3 > 100 µM | HCT-116 > 100 µM | Malme-3M > 100 µM | OVCAR-3 > 100 µM | SW-620 > 100 µM | COLO 205 > 100 µM | LOX IMVI > 100 µM | IGROV-1 > 100 µM | SK-MEL-5 > 100 µM | K562 > 100 µM | UACC-257 > 100 µM | SN12C > 100 µM | OVCAR-8 > 100 µM

Cc1ccc(S(=O)(=O)NCCCSCCSCCCN)cc1
inactive: CCRF-CEM > 100 µM | A498 > 100 µM | HCC 2998 > 100 µM | SNB-19 > 100 µM | SK-OV-3 > 100 µM | HCT-116 > 100 µM | A549 > 100 µM | OVCAR-3 > 100 µM | SW-620 > 100 µM | COLO 205 > 100 µM | LOX IMVI > 100 µM | SK-MEL-5 > 100 µM | K562 > 100 µM | UACC-257 > 100 µM | SN12C > 100 µM | OVCAR-8 > 100 µM

O=C1CCC(c2ccc(Cl)cc2)=NN1c1nsc2ccccc12
inactive: CCRF-CEM 17.7 µM | HCC 2998 18.2 µM | SNB-19 34.4 µM | SK-MEL-2 19.1 µM | RPMI-8226 19.3 µM | HCT-116 19.7 µM | A549 37.9 µM | OVCAR-3 17.7 µM | SW-620 58.1 µM | COLO 205 36.5 µM | LOX IMVI > 10 µM | IGROV-1 39.4 µM | SK-MEL-5 > 10 µM | K562 22.2 µM | UACC-257 22.9 µM | SN12C 25.6 µM | OVCAR-8 31.8 µM

CCOC(=O)c1c(-c2ccc(Cl)cc2)c(C#N)c(=S)n(C2OC(CO)C(O)C(O)C2O)c1-c1ccccc1 (configuration not stated)
inactive: CCRF-CEM 18.1 µM | HCC 2998 28.9 µM | SNB-19 22.8 µM | SK-MEL-2 24.1 µM | RPMI-8226 34.7 µM | SK-OV-3 28.3 µM | HCT-116 18.7 µM | A549 34.2 µM | Malme-3M 40.8 µM | OVCAR-3 21.3 µM | SW-620 18.5 µM | COLO 205 30.1 µM | LOX IMVI 14.6 µM | IGROV-1 33.7 µM | SK-MEL-5 15.6 µM | K562 19.5 µM | UACC-257 27.5 µM | SN12C 38.4 µM

Nc1cc[nH]c(=O)n1
inactive: CCRF-CEM > 100 µM | A498 > 100 µM | SK-MEL-2 > 100 µM | RPMI-8226 > 100 µM | SK-OV-3 > 100 µM | HCT-116 > 100 µM | A549 > 100 µM | Malme-3M > 100 µM | OVCAR-3 > 100 µM | SW-620 > 100 µM | COLO 205 > 100 µM | LOX IMVI > 100 µM | IGROV-1 > 100 µM | SK-MEL-5 > 100 µM | K562 > 100 µM | UACC-257 > 100 µM | SN12C > 100 µM | OVCAR-8 > 100 µM

C=CCN1C[C@H](C)N([C@H](c2ccc(C(=O)N(CC)CC)cc2)c2cccc(OC)c2)C[C@H]1C [SNC-80]
inactive: A498 13 µM | SNB-19 > 100 µM | SK-MEL-2 > 100 µM | RPMI-8226 29.1 µM | SK-OV-3 75.2 µM | HCT-116 42.7 µM | A549 54.3 µM | Malme-3M 16.7 µM | OVCAR-3 18.3 µM | SW-620 44.6 µM | COLO 205 16.8 µM | IGROV-1 35.2 µM | SK-MEL-5 14 µM | UACC-257 19.5 µM | SN12C 64.1 µM | OVCAR-8 > 100 µM

CC(=O)CC(=O)CCC(=O)O [SUCCINYLACETONE]
inactive: HCC 2998 > 100 µM | SNB-19 > 100 µM | SK-MEL-2 > 100 µM | SK-OV-3 > 100 µM | HCT-116 > 100 µM | A549 > 100 µM | Malme-3M > 100 µM | SW-620 > 100 µM | COLO 205 > 100 µM | LOX IMVI > 100 µM | IGROV-1 > 100 µM | K562 > 100 µM | UACC-257 > 100 µM | SN12C > 100 µM | OVCAR-8 > 100 µM
